From US10391166B2, “Short oligonucleotides as vaccine adjuvants and therapeutic agents” (priority 2013, dated 2019)
Entries after “also recorded” stand apart in the source; their conditions may differ.

What was measured:
[1] = test system: bacterial tester strains; experiment: Bacterial mutation test (screening version, pre-incubation); conditions: up to 5000 μg/plate
Description: Study design: The test was performed on one occasion only. A subset of the standard tester strains (list strains) was used to evaluate the genotoxic potential of the test article.
The test article was formulated in dimethyl sulfoxide (DMSO) and tested at a maximum concentration of 5000 μg/plate (the standard limit dose for this assay) together with approximate half-log dilutions using the pre-incubation version of the bacterial mutation test. The absence of colonies on sterility check plates confirmed the absence of microbial contamination. The mean revertant colony counts for the vehicle controls were close to or within the laboratory historical control data. Appropriate positive control compounds (+/−S9 mix) induced increases in revertant colony numbers at least twice the concurrent vehicle control levels with the appropriate bacterial strain (1.5× for strain TA 100), confirming the sensitivity of the test system and activity of the S9 mix. […] No precipitation was observed.

[2] = Dose range-finding oral study in cynomolgus monkeys; assay type: in vivo; conditions: 500 mg/kg/day oral for 4 days
Description: The objective of this study was to determine a maximum tolerated dose (MTD) and a no observable adverse effect level (NOAEL) for the endpoints examined following daily oral gavage of SB 44 for 4 consecutive days to cynomolgus monkeys. Information from this study was used to design subsequent dose-ranging toxicity studies and determine the suitability of the proposed human dose.
SB 44 was administered orally to cynomolgus monkeys consecutively for 4 days at 500 mg/kg/day.

[3] = human liver S9 fractions
Description: SB 44 (10 μM) was incubated with a mix containing S9 fraction (pooled from human) (1 mg/ml), NADPH (1.3 mM) UDPGA (5 mM), Alamethicin (10 μg/ml) in 1 ml of 1×PBS buffer. S-(5′-adenosyl)-L-methionine iodide (0.1 mM), adenosine 3′-phosphate 5′-phosphosulfate lithium salt hydrate (0.1 mM) and acetyl CoA (1 mM). The metabolite samples were evaluated by HPLC and LC/MS analysis.

[4] = test system: phosphorylated IRF3; experiment: Western blot for phosphorylated IRF3 in human lung epithelial A549 cells; assay type: cell-based; conditions: 500 nM, Western blotting
Description: Human lung epithelial A549 cells were incubated with either DMSO or SB 44 (500 nM). At indicated post-treatment time-points, the cell lysate was subjected to Western blotting with antibody specific for phosphorylated IRF3 (phospho-IRF3) (Cell signaling).

[5] = test system: peripheral blood mononuclear cells (PBMCs); experiment: Multiplex assay for 28 cytokines in PBMCs; assay type: cell-based, human; conditions: up to 50 μM
[6] = test system: MHC-II; assay type: cell-based, mouse
[7] = test system: PBMCs; assay type: cell-based
[8] = test system: M. tuberculosis; design: species or system C57Bl/6 mice; conditions: mouse, in vivo
[9] = test system: rat bone marrow erythrocytes; experiment: Bone-marrow micronucleus evaluation in rats; assay type: in vivo, Sprague-Dawley rats; conditions: 14-day oral dosing
Description: Necropsies were performed on Day 15 for rats in the main study group and on Day 28 for rats in the recovery group.

[10] = test system: RIG-I and NOD2; assay type: cell-based; conditions: receptor-deficient cells, exogenous RIG-I and NOD2
[11] = test system: IRF3-luciferase reporter gene; experiment: IRF3-luciferase reporter induction in HLE A549 cells (primary assay for NOD2 activation); assay type: cell-based, human; conditions: 12 h incubation
Description: The evaluation of SMNH compounds for NOD2 activation was conducted by primary, secondary, and tertiary assays. In the primary assays, SMNH compounds were tested for the induction of IRF3 expression in HLE A549 cells, which are known to endogenously express NOD2. […] SB 44, a mixture of two isomers Rp and Sp, is a prodrug of SB 40. SB 1B—the Rp isomer of SB 44 and is shown as SB 44-1 in the FIGS. 1-2.
IRF3-luciferase transfected cells were incubated with either DMSO only (UT) or SMNH compounds (μM). Following 12 h incubation, luciferase activity was measured using Dual-Luciferase Reporter Assay System (Promega) according to the manufacturer's protocol. Transfection efficiency was normalized by measuring the expression of renilla Luciferase. Luciferase units (i.e., fold induction) were measured by standard methodology (mean±standard deviation; 3 independent experiments). The results are depicted in FIG. 1.

[12] = test system: HFF (human foreskin fibroblasts); experiment: MTT cytotoxicity assay, HFF cells; assay type: cell-based; conditions: 24-hour incubation
Excerpt: (§1) SDS was used as a positive cytotoxic control.

[13] = test system: Madin-Darby bovine kidney (MDBK); experiment: MTT cytotoxicity assay, MDBK cells; assay type: cell-based; conditions: 24-hour incubation
Excerpt: as §1

## COC1C(OP(=O)(OCC2OC(n3cnc4c(N)ncnc43)CC2O)SCOC(=O)OC(C)C)C(CO)OC1n1ccc(=O)[nH]c1=O (mixture of isomers) [SB 44]
[1]
  toxicity to the bacteria (background lawn): non-toxic to the bacteria at the levels tested
[1]; absence or presence of S9 mix
  genotoxic activity (revertant colony counts): did not show any evidence of genotoxic activity
[2]
  elevation of ALT: about 2 fold
  elevation of AST: about 6 fold
  tolerability: clinically well tolerated
[3]
  conversion of prodrug to SB 40: stereospecific conversion of SB 44 to the dinucleotide SB 40
  phase II conjugative reactions: no apparent evidence of any phase II conjugative reactions
[3]; LC/MS
  desulfurized product corresponding to SB 40: < 5%
[4]
  activated IRF3 (phospho-IRF3) detection: detection of activated IRF3
[5]
  cytokine induction in human PBMC cultures: did not cause cytokine induction
[6]
  surface expression of MHC-II: increase MHC-II in MΦs; also recorded: enhances surface expression of MHC-II
[7]
  IFN production in the presence of BCG: modest augmentation of IFN production
[8]
  antigen specific CD8 / memory T cells in lungs of re-challenged mice: boost the magnitude of antigen specific memory T cells; also recorded: induces a robust expansion of antigen specific CD8 T cells
  protection against re-challenge of tuberculosis: induce protection against re-challenge of tuberculosis in mice
  recall response against re-challenge with tuberculosis: retain the ability to mount a better recall response
[9]
  induction of micronuclei: not found to induce micronuclei
[10]
  enhancement of ISG-56 expression over that induced by PolyI-PolyC: 2 fold
[11]
  IRF3 activation (IRF3-luciferase): induced IRF3 activation
[12]
  CC50: > 1000 µM
[13]
  CC50: > 1000 µM
